# In US12637479B2, “Low energy gap small molecule material and organic optoelectronic device using the same” (Raynergy Tek Incorporation, priority 2021, dated 2026):
# Legend:
# Type in all cases: physicochemical
# [1] = UV-Vis-NIR absorption spectra in film, optical energy gap from absorption onset
# Procedure: (§1) Please refer to FIG. 2 to FIG. 4 and Table 1.
# (§2) The highest occupied molecular orbital (HOMO) is calculated from HOMO=−|4.71÷E^xo−E^ferroncene|eV. The optical energy gap
# [formula] of the material is known from the absorption onset position
# (§3) [formula] of the UV-Vis-NIR absorption spectrum in film state. The lowest unoccupied molecular orbital (LUMO) is calculated from LUMO=HOMO+Eg eV.
# [2] = Solubility measurement in o-xylene; settings: 8 mg sample in 1 mL o-xylene
# From the text: Among them, “O” means complete dissolution, and “X” means incomplete dissolution. […] In the art, it is an industry trend to use non-halogenated green solvents. Green solvents generally come from renewable resources or can be degraded by soil organisms or other substances, have a short half-life, and are easily decayed into low-toxic and non-toxic substances. Therefore, green solvents are generally less harmful to biological health and the environment than general solvents that are easily chlorinated or highly toxic. Green solvents are also called environmentally friendly solvents. O-xylene is a non-halogen green solvent.
# [3] = Energy levels by cyclic voltammetry (HOMO, LUMO)
# Procedure: as §2, §3
# [4] = UV-Vis-NIR absorption spectra in chloroform solution
# Procedure: as §1, §2
compound,measurement,setting,value
CCCCCCCCCCCCc1cc(-c2c3c(c(-c4cc(CCCCCCCCCCCC)c(-c5cc6c(s5)-c5sc(-c7sc(-c8c9c(c(-c%10cc(CCCCCCCCCCCC)c(/C=C%11\C(=O)c%12cc(F)c(F)cc%12C%11=C(C#N)C#N)s%10)c%10nn(CC(CC)CCCC)nc8%10)N=S=N9)cc7CCCCCCCCCCCC)cc5C6(c5cc(CCCCCC)cc(CCCCCC)c5)c5cc(CCCCCC)cc(CCCCCC)c5)s4)c4nn(CC(CC)CCCC)nc24)N=S=N3)sc1/C=C1\C(=O)c2cc(F)c(F)cc2C1=C(C#N)C#N (centres unmarked) [Q4],λfilm^max,[1]; film,1029 nm
same,λfilm^onset,[1]; film,1455 nm
same,Eg^opt,[1]; from absorption onset in film state,0.85 eV
same,Solubility,[2],◯
same,LUMO,[3]; LUMO=HOMO+Eg,−4.32 eV
same,HOMO,[3]; cyclic voltammetry,−5.17 eV
same,λsoln^max,[4]; chloroform solution,965 nm
same,ε,[4]; maximum absorption coefficient,1.41 10^5 cm^−1 M^−1
